Measurements published in US20210269434A1, “TRICYCLIC COMPOUNDS AS INHIBITORS OF KRAS” (Incyte Corporation, priority 2020, published 2021).
pIC50: −log10 of the molar value.

Legend:
KRAS G12C = KRAS G12C (Homo sapiens, UniProt P01116, G12C); assay: GDP-GTP exchange assay (KRAS_G12C exchange); format: biochemical; settings: bodipy-GDP loaded KRAS G12C 2.5 nM, SOS1 150 nM, GppNHp; 2 hours pre-incubation, 2 hours reaction; read-out: G12C_exchange
Experimental: Example A. GDP-GTP Exchange Assay
The inhibitor potency of the exemplified compounds was determined in a fluorescence based guanine nucleotide exchange assay, which measures the exchange of bodipy-GDP (fluorescently labeled GDP) for GppNHp (Non-hydrolyzable GTP analog) to generate the active state of KRAS in the presence of SOS1 (guanine nucleotide exchange factor). Inhibitors were serially diluted in DMSO and a volume of 0.1 μL was transferred to the wells of a black low volume 384-well plate. 5 μL/well volume of bodipy-loaded KRAS G12C diluted to 5 nM in assay buffer (25 mM Hepes pH 7.5, 50 mM NaCl, 10 mM MgCl2 and 0.01% Brij-35) was added to the plate and pre-incubated with inhibitor for 2 hours at ambient temperature. Appropriate controls (enzyme with no inhibitor or with a G12C inhibitor (AMG-510)) were included on the plate. The exchange was initiated by the addition of a 5 μL/well volume containing 1 mM GppNHp and 300 nM SOS1 in assay buffer. The 10 μL/well reaction concentration of the bodipy-loaded KRAS G12C, GppNHp, and SOS1 were 2.5 nM, 500 uM, and 150 nM, respectively. The reaction plates were incubated at ambient temperature for 2 hours, a time estimated for complete GDP-GTP exchange in the absence of inhibitor. For the KRAS G12D and G12V mutants, similar guanine nucleotide exchange assays were used with 2.5 nM as final concentration for the bodipy loaded KRAS proteins and with 4 hours and 3 hours incubation after adding GppNHp-SOS1 mixture for G12D and G12V respectively. A cyclic peptide described to selectively bind G12D mutant (Sakamoto et al., BBRC 484.3 (2017), 605-611) or internal compounds with confirmed binding were used as positive controls in the assay plates. Fluorescence intensities were measured on a PheraStar plate reader instrument (BMG Labtech) with excitation at 485 nm and emission at 520 nm.
Either GraphPad prism or XLfit was used to analyze the data. The IC50 values were derived by fitting the data to a four parameter logistic equation producing a sigmoidal dose-response curve with a variable Hill coefficient. Prism equation: Y=Bottom+(Top−Bottom)/(1+10^((Log lC50−X)*Hill slope)); XLfit equation: Y=(A+((B−A)/(1+((X/C)^D)))) where X is the logarithm of inhibitor concentration and Y is the response.

[1] = tested on: MIA PaCa-2 (KRAS G12C) cells; assay: Cellular pERK HTRF assay (KRAS_G12C pERK); format: cell-based, human; settings: Homo sapiens, MIA PaCa-2, 4 hours incubation, read-out: G12C_pERK
Experimental: Example C: Cellular pERK HTRF Assay
MIA PaCa-2 (KRAS G12C; ATCC® CRL-1420), A427 (KRAS G12D; ATCC® HTB53), HPAF-II (KRAS G12D; ATCC® CRL-1997) and NCI-H838 (KRAS WT; ATCC® CRL-5844) cells are purchased from ATCC and maintained in RPMI 1640 media supplemented with 10% FBS (Gibco/Life Technologies). The cells are plated at 5000 cells per well (8 uL) into Greiner 384-well low volume, flat-bottom, tissue culture treated white plates and incubated overnight at 37° C., 5% CO2. The next morning, test compound stock solutions are diluted in media at 3× the final concentration, and 4 uL are added to the cells. The plate is mixed by gentle rotation for 30 seconds (250 rpm) at room temperature. The cells are incubated with the KRAS G12C and G12D compounds for 4 hours or 2 hours respectively at 37° C., 5% CO2.
4 uL of 4× lysis buffer with blocking reagent (1:25) (Cisbio) are added to each well and plates are rotated gently (300 rpm) for 30 minutes at room temperature. 4 uL per well of Cisbio anti Phospho-ERK 1/2 d2 is mixed with anti Phospho-ERK 1/2 Cryptate (1:1) are added to each well, mixed by rotation and incubated overnight in the dark at room temperature. Plates are read on the Pherastar plate reader at 665 nm and 620 nm wavelengths. IC50 determination is performed by fitting the curve of inhibitor percent inhibition versus the log of the inhibitor concentration using the GraphPad Prism 7 software.

Chain of KRAS G12C (P01116 1-188 isoform P01116-2 G12C): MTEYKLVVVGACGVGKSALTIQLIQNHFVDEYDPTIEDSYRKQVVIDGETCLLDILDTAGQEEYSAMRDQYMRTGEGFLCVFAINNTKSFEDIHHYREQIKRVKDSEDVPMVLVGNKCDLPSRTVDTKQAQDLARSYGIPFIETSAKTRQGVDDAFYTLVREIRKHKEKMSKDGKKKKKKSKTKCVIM

SMILES	pIC50 (KRAS G12C)	pIC50 [1]
COC/C=C/C(=O)N1CC[C@H](n2nnc3c(OC[C@@H]4CCCN4C)nc4c(F)c(-c5c(C)c(Cl)cc6[nH]ncc56)c(Cl)cc4c32)C[C@H]1CC#N (single isomer, unassigned) [Example 191a]	≥ 7.00	≥ 7.00
C=CC(=O)N1CC[C@H](n2nnc3c(N4CC(C)(N(C)C)C4)nc4c(F)c(-c5c(C)c(Cl)cc6[nH]ncc56)c(C)cc4c32)C[C@H]1CC#N (single isomer, unassigned) [Example 193a]	≥ 7.00	≥ 7.00
CC#CC(=O)N1CC[C@H](n2nnc3c(N4CC(C)(N(C)C)C4)nc4c(F)c(-c5c(C)c(Cl)cc6[nH]ncc56)c(C)cc4c32)C[C@H]1CC#N (single isomer, unassigned) [Example 194a]	≥ 7.00	≥ 7.00
C=CC(=O)N1CC[C@H](n2nnc3c(N4CC(C)(N(C)C)C4)nc4c(F)c(-c5c(C)c(C)cc6[nH]ncc56)c(C)cc4c32)C[C@H]1CC#N (single isomer, unassigned) [Example 198a]	≥ 7.00	≥ 7.00
C=CC(=O)N1CC[C@H](n2nnc3c(N4CC(C)(N(C)C)C4)nc4c(F)c(-c5c(C)ccc6[nH]ncc56)c(C)cc4c32)C[C@H]1CC#N (single isomer, unassigned) [Example 200a]	≥ 7.00	≥ 7.00
CC#CC(=O)N1CC[C@H](n2nnc3c(OC[C@@H]4CCCN4C)nc4c(F)c(-c5cccnc5C(F)(F)F)c(C)cc4c32)C[C@H]1CC#N (single isomer, unassigned) [Example 205a]	≥ 7.00	≥ 7.00
C=CC(=O)N1CCC(n2cnc3c(N4CC(C)(N(C)C)C4)nc4c(F)c(-c5cccc6cccc(Cl)c56)c(Cl)cc4c32)C[C@H]1CC#N (single isomer, unassigned) [Example 212a]	≥ 7.00	≥ 7.00
CC#CC(=O)N1CCC(n2cnc3c(N4CC(C)(N(C)C)C4)nc4c(F)c(-c5cccc6cccc(Cl)c56)c(Cl)cc4c32)C[C@H]1CC#N (single isomer, unassigned) [Example 213b]	≥ 7.00	≥ 7.00
C=CC(=O)N1CCC(n2cnc3c(N4CC(N(C)CC)C4)nc4c(F)c(-c5cccc6cccc(Cl)c56)c(Cl)cc4c32)C[C@H]1CC#N (single isomer, unassigned) [Example 214b]	≥ 7.00	≥ 7.00
C=CC(=O)N1CCC(n2cnc3c(OC[C@@H]4CCCN4C)nc4c(F)c(-c5cccc6cccc(Cl)c56)c(Cl)cc4c32)C[C@H]1CC#N (single isomer, unassigned) [Example 215b]	≥ 7.00	≥ 7.00
C=CC(=O)N1CCC(n2nnc3c(N4CC(C)(N(C)C)C4)nc4c(F)c(-c5cccc6cccc(Cl)c56)c(Cl)cc4c32)C[C@H]1CC#N (single isomer, unassigned) [Example 216a]	≥ 7.00	≥ 7.00
CC#CC(=O)N1CCC(n2nnc3c(N4CC(C)(N(C)C)C4)nc4c(F)c(-c5cccc6cccc(Cl)c56)c(Cl)cc4c32)C[C@H]1CC#N (single isomer, unassigned) [Example 218a]	≥ 7.00	≥ 7.00
C=CC(=O)N1CCC(n2nnc3c(N4CC(N(C)CC)C4)nc4c(F)c(-c5cccc6cccc(Cl)c56)c(Cl)cc4c32)C[C@H]1CC#N (single isomer, unassigned) [Example 219a]	≥ 7.00	≥ 7.00
C=CC(=O)N1CCC(n2nnc3c(N4CC(C)(N(C)C)C4)nc4c(F)c(-c5cccc6cccc(C#N)c56)c(Cl)cc4c32)C[C@H]1CC#N (single isomer, unassigned) [Example 220a]	≥ 7.00	≥ 7.00
C=CC(=O)N1CCC(n2cnc3c(N4CC(C)(N(C)C)C4)nc4c(F)c(-c5cccc6cccc(Cl)c56)c(C)cc4c32)C[C@H]1CC#N (single isomer, unassigned) [Example 221a]	≥ 7.00	≥ 7.00
C=CC(=O)N1CCC(n2cnc3c(N4CC(N(C)CC)C4)nc4c(F)c(-c5cccc6cccc(Cl)c56)c(C)cc4c32)C[C@H]1CC#N (single isomer, unassigned) [Example 223a]	≥ 7.00	≥ 7.00

Now from value to molecule:

pIC50 (KRAS G12C)	pIC50 [1]	SMILES
≥ 7.00	≥ 7.00	CC#CC(=O)N1CCC(n2cnc3c(N4CC(N(C)CC)C4)nc4c(F)c(-c5cccc6cccc(Cl)c56)c(C)cc4c32)C[C@H]1CC#N (single isomer, unassigned) [Example 224a]
≥ 7.00	≥ 7.00	CN(C)C/C=C/C(=O)N1CC[C@H](n2cnc3c(N4CC(N(C)C)C4)nc4c(F)c(-c5ccc(F)c6cccnc56)c(C(F)(F)F)cc4c32)C[C@H]1CC#N (single isomer, unassigned) [Example 230a]
≥ 7.00	≥ 7.00	CC#CC(=O)N1CC[C@H](n2nnc3c(N4CC(N(C)C)C4)nc4c(F)c(-c5c(C)c(Cl)cc6[nH]ncc56)c(CCC#N)cc4c32)C[C@H]1CC#N (single isomer, unassigned) [Example 231a]
≥ 7.00	≥ 7.00	C=CC(=O)N1CC[C@H](n2nnc3c(N4CC(C)(N(C)C)C4)nc4c(F)c(-c5ccc(F)c6cccnc56)c(C(F)(F)F)cc4c32)C[C@H]1CC#N (single isomer, unassigned) [Example 233a]
≥ 7.00	≥ 7.00	C=CC(=O)N1CC[C@H](n2nnc3c(N4CC(C)(N(C)C)C4)nc4c(F)c(-c5cccc(C)c5Cl)c(C(F)(F)F)cc4c32)C[C@H]1CC#N (single isomer, unassigned) [Example 235a]
≥ 7.00	≥ 7.00	C=CC(=O)N1CC[C@H](n2nnc3c(N4CC(C)(N(C)C)C4)nc4c(F)c(-c5cccc(Cl)c5C)c(C(F)(F)F)cc4c32)C[C@H]1CC#N (single isomer, unassigned) [Example 238a]
≥ 7.00	≥ 7.00	CC#CC(=O)N1CC[C@H](n2nnc3c(OC[C@@H]4CCCN4C)nc4c(F)c(-c5cccc(C)c5Cl)c(CCC#N)cc4c32)C[C@H]1CC#N (single isomer, unassigned) [Example 242a]
≥ 7.00	≥ 7.00	CC#CC(=O)N1CC[C@H](n2nnc3c(N4CC(C)(N(C)C)C4)nc4c(F)c(-c5cccc(Cl)c5OC)c(C(F)(F)F)cc4c32)C[C@H]1CC#N (single isomer, unassigned) [Example 243b]
≥ 7.00	≥ 7.00	CC#CC(=O)N1CC[C@H](n2nnc3c(N4CC(C)(N(C)C)C4)nc4c(F)c(-c5cccc(C)c5OC)c(C(F)(F)F)cc4c32)C[C@H]1CC#N (single isomer, unassigned) [Example 245a]
≥ 7.00	≥ 7.00	C=CC(=O)N1CC[C@H](n2cnc3c(N4CC(N(C)C)C4)nc4c(F)c(-c5c(C)c(Cl)cc6[nH]ncc56)c(Cl)cc4c32)C[C@H]1CC#N (single isomer, unassigned) [Example 267a]
≥ 7.00	≥ 7.00	CC#CC(=O)N1CC[C@H](n2nnc3c(OC[C@@H]4CCCN4C)nc4c(Cl)c(-c5ccc(F)c6cccnc56)c(Cl)cc4c32)C[C@H]1CC#N (single isomer, unassigned) [Example 270a]
≥ 7.00	≥ 7.00	C=CC(=O)N1CC[C@H](n2nnc3c(N4CC(N(C)C)C4)nc4c(Cl)c(-c5ccc(F)c6cccnc56)c(Cl)cc4c32)C[C@H]1CC#N (single isomer, unassigned) [Example 271a]
